Data published in patent US12285393B2, “Roles of modulators of intersectin-Cdc42 signaling in Alzheimer's disease” (priority 2017, dated 2025).
pIC50: −log10 of the molar value.

Experiments:
[1] = biological target: T1, Rac1 (Homo sapiens, UniProt P63000); experiment: Rho-GEF IC50 assay (GEF/DH domain-mediated mant-GTP binding); assay type: biochemical
T1 construct: purchased Cytoskeleton Inc
Description: (§1) Rho-GEF IC50 Assay: Rho-GEF assay (Cytoskeleton Inc., Denver, Colorado, United States of America) was conducted per manufacturer's instructions (λex=360 nm, λem=460 nm). Briefly, a solution (50 μL) of purified Rho GTPase (1 μM) and mant-GTP (1.5 μM) with or without compound (0.001-500 μM) was prepared and the absorbance monitored for 10-30 min to obtain the background/baseline. The addition of purified GEF/DH domain (0.08-0.2 μM) was carried out simultaneously and the absorbance was recorded for 30-45 min. The linear slope following the addition of the GEF was calculated and expressed as percentage of the control and plotted on an IC50 curve.

[2] = biological target: T2, RhoA (Homo sapiens, UniProt P61586); experiment: as above; assay type: biochemical
T2 construct: purchased Cytoskeleton Inc
Description: as §1

[3] = biological target: T3, Rac1 (Mus musculus, UniProt P63001); experiment: G-LISA in serum-starved Swiss 3T3 cells; assay type: cell-based; settings: 50 μM
T3 construct: endogenous in cells; host or cells: Swiss 3T3 cells

[4] = biological target: T4, Cdc42 (Homo sapiens, UniProt P60953); settings: in the presence of activating upstream signaling compounds; cited from earlier work
Target sequence in this assay (P60953 whole entry, species assumed, the tested form may be a part): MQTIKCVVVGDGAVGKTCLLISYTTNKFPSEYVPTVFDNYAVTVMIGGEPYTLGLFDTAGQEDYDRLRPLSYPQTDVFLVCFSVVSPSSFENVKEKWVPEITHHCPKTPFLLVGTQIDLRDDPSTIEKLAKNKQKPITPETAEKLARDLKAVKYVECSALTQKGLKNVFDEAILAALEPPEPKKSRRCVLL

[5] = biological target: T4, Cdc42; experiment: Rho-GEF IC50 assay (GEF/DH domain-mediated mant-GTP binding); assay type: biochemical; set-up: purchased Cytoskeleton Inc; settings: read-out: IC50, GEF/DH domain-mediated mant-GTP binding/Cdc42 activation
Description: as §1
Target sequence in this assay (P60953 whole entry, the tested form may be a part): as the sequence (P60953 whole entry, species assumed, the tested form may be a part) above

[6] = biological target: T4, Cdc42; experiment: Cdc42-GEF-assay, additional compound screening; assay type: biochemical; set-up: purchased Cytoskeleton Inc; settings: percentages of ZCL278 activity normalized to batch; more than 100% = more potent activator; Table 9
Description: as §1
Target sequence in this assay (P60953 whole entry, the tested form may be a part): as the sequence (P60953 whole entry, species assumed, the tested form may be a part) above
Cdc42 (1 μM) was incubated with mant-GTP (1.5 μM) and varying concentrations of ZCL278, ZCL279, or ZCL367 (5-500 μM). Fluorescent readings were taken every minute for 10 m to acquire the baseline. The GEF/DH domain (0.08-0.2 μM) was added followed by readings taken every minute for another 30 m. The linear phase was calculated from within the time period of 12-22 m. Cdc42 (1 μM) was incubated with mant-GTP (1.5 μM) and varying concentrations of ZCL278, ZCL279, or ZCL367 (5-500 μM). Fluorescent readings were taken every minute for 30 m to monitor the binding of mant-GTP in the absence of GEF/DH domain.
Cdc42-GEF-assays were conducted on additional screening compounds in batches of 9 compounds per batch as described above in Example 2 using ZCL278 and ZCL367 as standards. Screening compounds were taken from the Specs Chemistry Database of 197,000 compounds for small molecule or the National Cancer Institute Compound Library. […] These compounds promote Cdc42-mantGTP binding without GEF. It is possible that these compounds can inhibit Cdc42-mantGTP binding with GEF. […] These compounds appear to have activity like ZCL279. […] However, upon the addition of GEF, the compounds appear to facilitate the binding of mantGTP to Cdc42 (high assay slope, relative to ZCL278)

[7] = test system: 3×Tg-AD mice; experiment: Burrowing test; assay type: in vivo; settings: 3×Tg AD mouse model; 20 μg/g I.P. once a week, 4 weeks
Excerpt: (§2) Six-month-old C57/BL6 (WT) and 3×Tg-AD mice with an average weight of 24 g from Jackson Laboratory (Bar Harbor, Maine, United States of America) were used. The 3×Tg-AD mice in hybrid 129/C57BL/6 background contain two mutant human transgenes, hAPP harboring Swedish mutation (hAPPswe) and mutant htau (htau301L) under a neuron-specific promoter, and also contain the knock-in mutant presenilin 1 (PS1M146V). See Oddo et al. (2003) Neuron 39:409-421). 3×Tg-AD mice were received from Jackson Laboratory as Psen1 B6:129-Psen1<tmMpm>Tg(APPSwetauP301L)1Lfa/J and the wild type control as SF2: (B6129SF1/J+p+Tyr-c+Mgf-SIJ)F2. All mice were subjected to two weeks of training for familiarizing behavioral test procedures. Subsequently, mice were assayed to establish a baseline of behavior tests before ZCL compound treatment. Then, mice were separated into three treatment groups (Control, ZCL278 and ZCL279). Both ZCL278 and ZCL279 were dissolved in sesame oil with 5% DMSO and each treatment was administrated via an intraperitoneal injection. All treatment groups of mice were treated once a week. Control group was treated with 130 μl 5% DMSO in sesame oil. […]
Burrowing test: At least 2.5 hours before the start of the dark cycle (4:30 pm), mice from each selected treatment group were housed in individual cages. […] After 2 hours, the food left in the tube was measured.

[8] = test system: 3×Tg-AD mice; experiment: Morris water maze test; assay type: in vivo
Excerpt: as §2, with “ZCL279).” for “ZCL279). Both ZCL278 and ZCL279 were dissolved in sesame oil with 5% DMSO and each treatment was administrated via an intraperitoneal injection. All treatment groups of mice were treated once a week. Control group was treated with 130 μl 5% DMSO in sesame oil.”
Mice were trained to swim to a 14 cm diameter circular clear Plexiglas platform submerged 1.5 cm beneath the surface of the water and invisible to the mice while swimming. […] Retention of the spatial training was assessed at 1.5 hr and again at 24 hr after the last training trial. […] Mice were monitored by a camera mounted in the ceiling directly above the pool, and all trials were stored on videotape for subsequent analysis.

T2 sequence (P61586 whole entry): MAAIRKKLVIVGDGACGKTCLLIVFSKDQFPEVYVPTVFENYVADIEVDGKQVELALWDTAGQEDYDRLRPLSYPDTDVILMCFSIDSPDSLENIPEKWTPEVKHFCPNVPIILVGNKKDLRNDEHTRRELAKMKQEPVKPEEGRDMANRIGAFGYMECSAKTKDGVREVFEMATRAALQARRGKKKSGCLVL

SMILES | pIC50 [1] | pIC50 [2] | effect on Rac1 [3] | effect on Cdc42 [4] | pIC50 [5] | % ZCL278 (activator activity) [6] | instinctual behavior: food burrowing [7] | spatial memory ability compared with WT mice ([8]; 3×Tg AD mice, Day 4) | spatial memory ability (latency in finding the submerged platform) ([8]; AD mouse model)
Cc1cc(C)nc(NS(=O)(=O)c2ccc(NC(=S)NC(=O)COc3ccc(Br)cc3Cl)cc2)n1 [ZCL278, 4-(3-(2-(4-bromo-2-chloro-phenoxy)-acetyl)-thioureido)-N-(4,6-dimethylpyrimidin-2-yl)-benzenesulfonamide] | ≤ 3.30 | ≤ 3.30 | inhibits Rac1 | inhibit Cdc42 | 5.12 | 100% | – | – | –
O=S(=O)(Nc1ccccc1O)c1ccc2oc3ccc(S(=O)(=O)Nc4ccccc4O)cc3c2c1 [ZCL279, N^2,N^8-bis(2-hydroxyphenyl)dibenzo[b,d]furan-2,8-disulfonamide] | – | – | – | – | – | – | improve instinctual behavior | appeared similar to WT mice | improves spatial memory ability
